pIC50: −log10 of the molar value.
Biological target: Diacylglycerol kinase alpha (Homo sapiens, UniProt P23743)
Experiment: Inhibition of His-tagged recombinant human DGKalpha using DLG as substrate preincubated with substrate and ATP for 1 mins followed by compound addition and measured after 90 mins by ADP-Glo kinase assay

Diacylglycerol kinase alpha, sequence (P23743 whole entry): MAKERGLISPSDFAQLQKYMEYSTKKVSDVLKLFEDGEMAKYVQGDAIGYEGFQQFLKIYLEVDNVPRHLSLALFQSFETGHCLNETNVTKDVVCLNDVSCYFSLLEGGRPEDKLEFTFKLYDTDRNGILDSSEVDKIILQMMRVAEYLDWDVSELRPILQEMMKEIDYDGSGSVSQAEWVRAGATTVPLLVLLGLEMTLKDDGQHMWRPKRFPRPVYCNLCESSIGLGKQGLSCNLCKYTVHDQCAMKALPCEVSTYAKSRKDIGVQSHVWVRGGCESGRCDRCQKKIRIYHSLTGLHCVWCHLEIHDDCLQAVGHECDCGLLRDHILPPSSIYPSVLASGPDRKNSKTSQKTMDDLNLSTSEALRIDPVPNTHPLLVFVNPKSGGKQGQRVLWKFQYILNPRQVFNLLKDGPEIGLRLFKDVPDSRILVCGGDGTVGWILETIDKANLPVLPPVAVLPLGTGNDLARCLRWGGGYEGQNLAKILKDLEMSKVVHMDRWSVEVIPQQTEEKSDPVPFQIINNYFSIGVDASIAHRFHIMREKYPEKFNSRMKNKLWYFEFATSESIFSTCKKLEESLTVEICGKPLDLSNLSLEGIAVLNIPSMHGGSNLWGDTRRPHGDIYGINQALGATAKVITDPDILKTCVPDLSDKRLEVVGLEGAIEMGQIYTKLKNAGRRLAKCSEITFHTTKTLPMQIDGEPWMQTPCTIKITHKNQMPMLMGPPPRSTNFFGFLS

pIC50, ≥ 7.70:
F/C(=C\c1ccc(Oc2ccccc2F)c(C(F)(F)F)c1N1CCCC2(CCN(CC3CC3)CC2)C1)c1nccc(-c2cnsc2)n1, CCN1CCC2(CC1)CN(c1c(/C=C(\F)c3nccc(-c4ccnnc4)n3)ccc(Oc3ccccc3)c1C(F)(F)F)CCO2, CCN1CCC2(CCCN(c3c(/C=C(\F)c4nccc(N5CC(F)(F)C5)n4)ccc(Oc4ccccc4F)c3C(F)(F)F)C2)CC1, NC[C@H]1CCCN1c1c(/C=C(\F)c2nccc(-c3ccnnc3)n2)ccc(Oc2ccccc2)c1Cl, COc1cc(F)ccc1Oc1ccc(/C=C(\F)c2nncc(N3CCC(F)(F)C3)n2)c(N2CCC[C@@H](CN)C2)c1Cl
